Laboratory results as given in the supplement of paper PMC10307832.

Legend:
Assay in all cases: relative viability (nuclei count vs DMSO), 5 days (fraction); higher = more cells survive
Pazopanib + Foretinib = compound: Cc1ccc(Nc2nccc(N(C)c3ccc4c(C)n(C)nc4c3)n2)cc1S(N)(=O)=O [Pazopanib] + COc1cc2c(Oc3ccc(NC(=O)C4(C(=O)Nc5ccc(F)cc5)CC4)cc3F)ccnc2cc1OCCCN1CCOCC1 [Foretinib] (partner 0.25 µM)
Outline: (§1)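 Nuclei were stained with Hoechst during a one-step fixation (final 0.05% Triton X-100, 1% formaldehyde, 1 ug/ml Hoechst) carried out 5 days after dosing, then counted on 4× images. The cells, lung cancer lines in 1536-well plates, had been dosed by pin tool the day after seeding with one drug alone or a fixed anchor-drug dose plus five library-drug doses (not always all listed) in √10 steps. Relative viability is the nuclei count in treated wells divided by that in vehicle wells, and each value is the median of duplicate plates.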

Pazopanib + Linsitinib = compound: Cc1ccc(Nc2nccc(N(C)c3ccc4c(C)n(C)nc4c3)n2)cc1S(N)(=O)=O [Pazopanib] + C[C@]1(O)C[C@@H](c2nc(-c3ccc4ccc(-c5ccccc5)nc4c3)c3c(N)nccn32)C1 [Linsitinib] (partner 1 µM)
Outline: as §1

Pazopanib + Bortezomib = compound: Cc1ccc(Nc2nccc(N(C)c3ccc4c(C)n(C)nc4c3)n2)cc1S(N)(=O)=O [Pazopanib] + CC(C)C[C@H](NC(=O)[C@H](Cc1ccccc1)NC(=O)c1cnccn1)B(O)O [Bortezomib] (partner 0.002 µM)
Outline: as §1

Ponatinib + Tozasertib = compound: Cc1ccc(C(=O)Nc2ccc(CN3CCN(C)CC3)c(C(F)(F)F)c2)cc1C#Cc1cnc2cccnn12 [Ponatinib] + Cc1cc(Nc2cc(N3CCN(C)CC3)nc(Sc3ccc(NC(=O)C4CC4)cc3)n2)n[nH]1 [Tozasertib] (partner 0.1 µM)
Outline: as §1

| Cell Line | relative viability (Pazopanib + Foretinib; first compound 0.01 µM) | relative viability (Pazopanib + Foretinib; first compound 0.03162 µM) | relative viability (Pazopanib + Foretinib; first compound 0.1 µM) | relative viability (Pazopanib + Foretinib; first compound 0.3162 µM) | relative viability (Pazopanib + Foretinib; first compound 1 µM) | relative viability (Pazopanib + Linsitinib; first compound 0.01 µM) | relative viability (Pazopanib + Linsitinib; first compound 0.03162 µM) | relative viability (Pazopanib + Linsitinib; first compound 0.1 µM) | relative viability (Pazopanib + Linsitinib; first compound 0.3162 µM) | relative viability (Pazopanib + Linsitinib; first compound 1 µM) | relative viability (Pazopanib + Bortezomib; first compound 0.01 µM) | relative viability (Pazopanib + Bortezomib; first compound 0.03162 µM) | relative viability (Pazopanib + Bortezomib; first compound 0.1 µM) | relative viability (Pazopanib + Bortezomib; first compound 0.3162 µM) | relative viability (Pazopanib + Bortezomib; first compound 1 µM) | relative viability (Ponatinib + Tozasertib; first compound 0.002 µM) | relative viability (Ponatinib + Tozasertib; first compound 0.006325 µM) | relative viability (Ponatinib + Tozasertib; first compound 0.06325 µM) | relative viability (Ponatinib + Tozasertib; first compound 0.2 µM) |
| --- | --- | --- | --- | --- | --- | --- | --- | --- | --- | --- | --- | --- | --- | --- | --- | --- | --- | --- | --- |
| HCC-78 | 0.523 | 0.553 | 0.524 | 0.638 | 0.701 | 0.403 | 0.578 | 0.435 | 0.454 | 0.668 | 0.408 | 0.453 | 0.498 | 0.414 | 0.619 | 0.385 | 0.511 | 0.404 | 0.33 |
| HCC-366 | 1.01 | 0.956 | 0.974 | 0.969 | 0.938 | 0.472 | 0.73 | 0.674 | 0.828 | 0.885 | 0.954 | 1.07 | 1.02 | 0.973 | 1.09 | 0.112 | 0.108 | 0.0686 | 0.0671 |
| HCC-827 | 1.07 | 0.992 | 1.05 | 1.06 | 0.969 | 1.01 | 0.935 | 0.938 | 0.933 | 0.849 | 0.963 | 1.06 | 1.06 | 1.05 | 1.03 | 0.403 | 0.42 | 0.427 | 0.414 |
| HOP-62 | 1.05 | 1.04 | 1.2 | 1.08 | 0.976 | 0.9 | 0.973 | – | 1 | 0.859 | 0.642 | 0.724 | – | 0.935 | 0.923 | 0.303 | 0.348 | 0.317 | 0.33 |
| IA-LM | 1.17 | 1.07 | 1.13 | 1.04 | 1.02 | 0.428 | 0.553 | 0.527 | 0.613 | 0.622 | 0.889 | 1.05 | 0.77 | 0.797 | 0.597 | – | – | – | – |
| LC-2-ad | 0.888 | 0.927 | 1.05 | 0.967 | 1.04 | 0.813 | 0.778 | 0.868 | 0.8 | 0.842 | 0.977 | 1.08 | 1.02 | 0.956 | 1.12 | 0.458 | 0.455 | 0.431 | 0.397 |
| LCLC-97TM1 | 0.908 | 0.976 | 1.03 | 0.909 | 0.905 | – | 0.229 | 0.154 | 0.2 | 0.211 | 0.506 | 0.693 | 0.482 | 0.737 | 0.592 | 0.236 | 0.298 | 0.17 | 0.218 |
| LCLC-103H | 0.651 | 0.897 | 0.734 | 0.819 | 0.894 | 0.846 | 1.22 | 1.06 | 1.04 | 1.14 | 0.942 | 0.869 | 1.11 | 1.04 | 1.24 | 0.527 | 0.534 | 0.522 | 0.404 |
| LK-2 | – | 1.2 | 1.07 | 1.11 | 1.01 | 0.486 | 0.564 | 0.475 | 0.517 | 0.524 | – | – | – | – | – | – | 0.174 | 0.188 | 0.209 |
| NCI-H358 | 0.726 | 0.91 | 0.838 | – | 0.918 | 0.875 | 0.626 | 0.82 | 0.993 | 0.821 | – | – | – | – | – | 0.0953 | 0.101 | 0.0969 | 0.165 |
| NCI-H522 | – | – | – | – | – | – | – | – | – | – | – | – | – | – | – | 0.51 | 0.543 | 0.476 | 0.455 |
| NCI-H1299 | 1.07 | 1.06 | 1.13 | 1.09 | 1.01 | 0.902 | 1.02 | 1.01 | 0.97 | 0.932 | 0.998 | 0.987 | 1.05 | 1.03 | 1.02 | – | – | – | – |
| NCI-H1395 | 0.947 | 1.07 | 1.01 | 0.931 | 0.968 | 0.983 | 1.27 | 1.07 | 0.992 | 1.05 | – | – | – | – | – | 0.636 | 0.747 | 0.768 | 0.701 |
| NCI-H1563 | 0.823 | 0.966 | 1.04 | 0.969 | 1.08 | 1.13 | 1.18 | 1.25 | 1.3 | 1.18 | 0.788 | 0.873 | 0.947 | 0.913 | 0.985 | – | – | – | – |
| NCI-H1648 | – | – | – | – | – | – | – | – | – | – | – | – | – | – | – | 0.464 | 0.361 | 0.577 | 0.283 |
| NCI-H1650 | 1.12 | 1.2 | 1.15 | 1.05 | 1.09 | – | – | – | – | – | 0.204 | 0.212 | 0.235 | 0.191 | 0.21 | 0.323 | 0.411 | 0.348 | 0.304 |
| NCI-H1703 | 0.306 | 0.358 | 0.362 | 0.396 | 0.337 | 0.441 | – | 0.264 | 0.243 | 0.301 | 0.26 | 0.262 | 0.233 | 0.267 | 0.214 | – | – | – | – |
| NCI-H1792 | – | – | – | – | – | – | 0.534 | 0.601 | 0.522 | 0.588 | – | 0.958 | 0.916 | 0.949 | 0.935 | – | – | – | – |
| NCI-H1793 | – | 0.478 | 0.628 | 0.867 | 0.938 | – | 0.871 | 0.835 | 0.83 | 0.905 | – | – | – | – | – | 0.357 | 0.388 | 0.29 | 0.204 |
| NCI-H1944 | – | 0.94 | 0.905 | 0.861 | 0.986 | 1.08 | 1.28 | 1.15 | 1.24 | 1.32 | – | – | – | – | – | 0.24 | 0.246 | 0.247 | 0.255 |
| NCI-H2170 | 1.06 | 1.08 | 1.01 | 1.02 | 1.07 | – | – | – | – | – | – | – | – | – | – | 0.755 | 0.674 | 0.651 | 0.665 |
| NCI-H2342 | 0.981 | 1 | 1.09 | 0.939 | 0.755 | – | – | – | – | – | – | – | – | – | – | 0.489 | 0.639 | 0.403 | 0.591 |
| SK-MES-1 | 0.95 | 0.985 | 0.951 | 0.951 | 1.1 | 0.983 | 1.01 | 1.12 | 1.15 | 1.02 | – | – | – | – | – | 0.828 | 0.909 | 0.964 | 0.842 |
| SW 900 | 0.843 | 0.886 | 0.941 | 0.876 | 0.97 | – | – | – | – | – | – | – | – | – | – | 0.58 | 0.51 | 0.337 | 0.38 |
